# Experimental data reported in patent US6420430B1, “Use of inhibitors of the sodium-hydrogen exchanger for preparing a medicament for preventing age-related disorders, and for prolonging life” (Aventis Pharma Deutschland GmbH, priority 1998, dated 2002).
# Entries after “also recorded” stand apart in the source; their conditions may differ.
# Legend:
# [1] = system: normotensive Wistar-Kyoto rats (WKY rats); assay: Life-long treatment of normotensive WKY rats with cariporide via the feed: lifespan, cumulative survival rate, onset of age-related cancer; type: in vivo, rat
# From the text: The effect of a life-long treatment of young normotensive Wistar-Kyoto rats (WKY rats) with the sodium-hydrogen exchanger (“NHE”) inhibitor cariporide was investigated. In addition to the primary end point, the lifespan, surrogate parameters were studied and measured, for example the hypertrophy of the left ventricle of the heart, heart function, metabolism and endothelial function. In addition, organs, such as heart, kidneys, skeletal muscles and eyes, were examined histomorphologically.
# Ninety one-month-old WKY rats were randomized into two groups of placebo-treated (n=45) and cariporide-treated (n=45) rats. Cariporide was administered via the feed (active compound content 0.3%).
# Male WKY rats were purchased from Møllegrad Denmark. The animals (3 per cage) were kept under standardized conditions with respect to temperature, atmospheric humidity and light. The rats had free access to a standard diet (Altromin® maintenance diet 1320, sodium content 0.2%) and received drinking water ad libitum. All experiments were carried out in accordance with the German Law on the Protection of Animals.
# Ninety one-month-old animals were randomized into two groups of in each case 45 animals. After randomization, placebo and cariporide were administered to the rats via the drinking water and the feed, respectively, a proportion of 0.3% of the feed ensuring complete blockage of the NHE for 24 hours.
# At intervals of 3 months, the body weight was determined and the blood pressure was measured using the tail plethysmography method. Events of death were registered after they had occurred.
# All data are stated as mean±standard deviations. The survival data were analyzed in accordance with Kaplan-Meier, followed by a Mantel-Cox log-rank test. Furthermore, variance analysis (ANOVA) followed by a Student-Newman-Keuls test were employed. Null hypotheses were rejected at p<0.05.
# WKY rats [2] = assay: Interim analysis after 30 months: organ weights (heart, ventricles, kidneys, spleen); type: in vivo, rat
# Protocol: (§1) The interim analysis was carried out after 80% of the placebo-treated animals had died; this was the case after 30 months. 10 animals of each group were selected at random and anesthetized (hexobarbital, 80 mg·kg^−1, i.p.). Blood samples were then taken, and the thoracic aortae and the hearts were prepared and biochemically and/or functionally examined (Linz et al., 1997). In accordance with the method described by Langendorff, the hearts were perfused with an oxygen-saturated (95% O2, […]), non-circulating Krebs-Henseleit solution of the following composition (mmol/l): NaCl, 118; KCl, 4.7; CaCl2, 2.5; MgSO4, 1.6; NaHCO3, 24.9; KH2PO4, 1.2; glucose, 5.5; Na-pyruvate, 2.0, using a perfusion pressure of 60 mm Hg. The pressure in the left ventricle and the pulse frequency of the heart were measured using a balloon catheter. The coronary blood flow was determined using an electromagnetic flow gage. After a washing phase of 5 minutes, 1 ml of the coronary effluent was taken off for measuring the lactate concentrations and the lactate dehydrogenase and creatine kinase activities. The weights of the entire heart and the weights of the left and the right ventricle were then determined. The left ventricle was fixed in 10% strength neutral buffered formalin solution and embedded in paraffin for light-microscopic examination.
# [3] = system: isolated heart of WKY rats; assay: Function and metabolism of the isolated heart (Langendorff) after 30 months of treatment; type: in vivo, rat; settings: n = 10 per group
# Protocol: as §1
# [4] = system: isolated thoracic aorta of WKY rats; assay: Vessel function on isolated rings of the thoracic aorta: endothelium-dependent relaxation by acetylcholine after KCl precontraction; type: in vivo, rat; settings: KCl-precontracted aorta rings, 30-month-old rats
# Protocol: The interim analysis was carried out after 80% of the placebo-treated animals had died; this was the case after 30 months. 10 animals of each group were selected at random and anesthetized (hexobarbital, 80 mg·kg^−1, i.p.). Blood samples were then taken, and the thoracic aortae and the hearts were prepared and biochemically and/or functionally examined (Linz et al., 1997). The aorta was introduced into Tyrode's solution and freed from the surrounding fatty tissue. Segments of 2 mm were then sliced into rings, and these rings were introduced in a temperature-controlled (37° C.) organ bath (10 ml) with Tyrode's solution (composition in mol/l: NaCl 136.9; NaHCO3 11.9; KCl 2.7; CaCl2 0.5; MgCl2 2.0; NaHPO4 0.4; glucose 5.5; pH=7.4), and 95% O2/5% CO2 was bubbled through the solution. Each ring was mounted vertically between two fine steel clamps. The upper clamp was connected to a force sensor. The force signal was recorded using a computer-assisted biosignal analyzer. The aorta rings were suspended using a passive tension of 4.9 mN. After an adaptation period of one hour, the rings were contracted using potassium chloride (20 mmol/l). After a plateau had been reached, increasing concentrations of acetylcholine of 10^−8, 10^−7, 10^−6 and 10^−5 mol/l were added to the bath, triggering an endothelium dependent relaxation.
# WKY rats [5] = assay: Histomorphological examination of organs (heart, kidneys, skeletal muscles, eyes, liver); type: in vivo, rat; settings: for age-related histomorphological organ changes (connective tissue in heart muscle, muscular dystrophy, tubulointerstitial kidney damage, retina atrophy): life-long treatment, WKY rats
# From the text: The effect of a life-long treatment of young normotensive Wistar-Kyoto rats (WKY rats) with the sodium-hydrogen exchanger (“NHE”) inhibitor cariporide was investigated. In addition to the primary end point, the lifespan, surrogate parameters were studied and measured, for example the hypertrophy of the left ventricle of the heart, heart function, metabolism and endothelial function. In addition, organs, such as heart, kidneys, skeletal muscles and eyes, were examined histomorphologically. In accordance with the method described by Langendorff, the hearts were perfused with an oxygen-saturated (95% O2, […]), non-circulating Krebs-Henseleit solution of the following composition (mmol/l): NaCl, 118; KCl, 4.7; CaCl2, 2.5; MgSO4, 1.6; NaHCO3, 24.9; KH2PO4, 1.2; glucose, 5.5; Na-pyruvate, 2.0, using a perfusion pressure of 60 mm Hg. The pressure in the left ventricle and the pulse frequency of the heart were measured using a balloon catheter. The coronary blood flow was determined using an electromagnetic flow gage. After a washing phase of 5 minutes, 1 ml of the coronary effluent was taken off for measuring the lactate concentrations and the lactate dehydrogenase and creatine kinase activities. The weights of the entire heart and the weights of the left and the right ventricle were then determined. The left ventricle was fixed in 10% strength neutral buffered formalin solution and embedded in paraffin for light-microscopic examination.
# hypertensive rats = hypertensive rats only; Circulation 1997; 96: 3164-3172; cited from earlier work
compound,measurement,setting,value
"CC(C)c1ccc(C(=O)N=C(N)N)cc1S(C)(=O)=O.CS(=O)(=O)O [Cariporide, cariporide]",Survival rate in percent,[1]; 19 months,100%
same,Survival rate in percent,[1]; 20 months,100%
same,Survival rate in percent,[1]; 21 months,100%
same,Survival rate in percent,[1]; 22 months,100%
same,Survival rate in percent,[1]; 23 months,97%
same,Survival rate in percent,[1]; 24 months,97%
same,Survival rate in percent,[1]; 25 months,97%
same,Survival rate in percent,[1]; 26 months,97%
same,Survival rate in percent,[1]; 27 months,97%
same,Survival rate in percent,[1]; 28 months,97%
same,Survival rate in percent,[1]; 29 months,92%
same,Survival rate in percent,[1]; 30 months,89%
same,Survival rate in percent,[1]; 31 months,80%
same,Survival rate in percent,[1]; 32 months,75%
same,Survival rate in percent,[1]; 33 months,67%
same,Survival rate in percent,[1]; 34 months,59%
same,Survival rate in percent,[1]; 35 months,49%
same,Survival rate in percent,[1]; 36 months,38%
same,Survival rate in percent,[1]; 37 months,28%
same,Survival rate in percent,[1]; 38 months,17%
same,Survival rate in percent,[1]; 39 months,10%
same,maximum lifespan,"[1]; life-long treatment, 0.3% in feed, WKY rats, placebo 30 months",39 months
same,onset of age-related cancer,"[1]; life-long treatment, WKY rats, listed as cariporide",delayed onset; also recorded: delayed significantly
same,life extension,[1]; maximum lifespan versus placebo,30%
same,"Heart weight, Heart (total)",WKY rats [2]; n = 10/group,235 ± 10 mg/100 g of body weight
same,"Heart weight, Left ventricle",WKY rats [2]; n = 10/group,193 ± 8 mg/100 g of body weight
same,"Heart weight, Right ventricle",WKY rats [2]; n = 10/group,36 ± 2 mg/100 g of body weight
same,age-related hypertrophy of the heart,WKY rats [2]; versus placebo-treated animals,prevented
same,CF (coronary flow),[3],34.6 ± 0.7 mL/min/g
same,CK (creatine kinase in the coronary effluent),[3],0.20 ± 0.02 mU/min/g heart wwt
same,HR,[3],182 ± 7 beats/min
same,LDH (lactate dehydrogenase in the coronary effluent),[3],0.42 ± 0.02 mU/min/g heart wwt
same,LVP (pressure in the left ventricle),[3],111.5 ± 3.9 mm Hg
same,Lactate in the coronary effluent,[3],2.5 ± 0.13 μmol/min/g heart wwt
same,dP/dtmax (constriction rate of the left ventricle),[3],4432 ± 121 mm Hg/s
same,Vessel function on the aorta (relaxation in %),[4]; ACh 10^−5 mol/l,95 ± 10%
same,Vessel function on the aorta (relaxation in %),[4]; ACh 10^−6 mol/l,85 ± 8 %
same,Vessel function on the aorta (relaxation in %),[4]; ACh 10^−7 mol/l,50 ± 6 %
same,Vessel function on the aorta (relaxation in %),[4]; ACh 10^−8 mol/l,5 ± 2%
same,histomorphology of the livers,WKY rats [5]; compared with control animals,unchanged
same,"age-related histomorphological organ changes (connective tissue in heart muscle, muscular dystrophy, tubulointerstitial kidney damage, retina atrophy)",WKY rats [5],drastically reduced
same,"age-related histomorphological organ changes (connective tissue in heart muscle, muscular dystrophy, tubulointerstitial kidney damage, retina atrophy)",WKY rats [5]; listed as cariporide,reduced drastically or prevented completely
CCOC(=O)[C@H](CCc1ccccc1)N[C@@H](C)C(=O)N1[C@H](C(=O)O)C[C@@H]2CCC[C@@H]21 [ramipril],effect on lifespan,hypertensive rats,life-prolonging effect
